The assay deals with T1, rat mGlu2 (Rattus norvegicus, UniProt P31421).
T1 construct: expressed in transfected cells
Description: mGlu2 Ca2+ flux assay. The format is cell-based. The settings on record: for IC50: Gα15 HEK293 cells stably expressing rat mGlu2, glutamate EC80 addition, read-out: rat mGlu2 IC50; for remaining activity at 30 µM: amplitude of response in the presence of 30 μM test compound as percentage of maximal response to glutamate, read-out: rat mGlu2 Glu max (%). Here is the method: Gα15 HEK293 cells stably expressing rat mGlu2 were plated in black-walled, clear-bottomed, poly-D-lysine coated 384-well plates in 20 μL of assay medium (DMEM containing 10% dialyzed FBS, 20 mM HEPES, and 1 mM sodium pyruvate) at a density of 12K cells/well. The cells were grown overnight at 37° C. in the presence of 5% CO2. The next day, medium was removed and the cells incubated with 20 μL of 2.3 μM Fluo-4, AM prepared as a 2.3 mM stock in DMSO and mixed in a 1:1 ratio with 10% (w/v) pluronic acid F-127 and diluted in assay buffer (Hank's balanced salt solution, 20 mM HEPES, and 2.5 mM probenecid) for 45 minutes at 37° C. Dye was removed, 20 μL of assay buffer was added, and the plate was incubated for 5 minutes at room temperature.
Ca^2+ flux was measured using the Functional Drug Screening System (FDSS7000, Hamamatsu, Japan). After establishment of a fluorescence baseline for about 3 seconds, the compounds of the present invention were added to the cells, and the response in cells was measured. 2.3 minutes later an EC20 concentration of the mGlu2 receptor agonist glutamate was added to the cells, and the response of the cells was measured for 1.9 minutes; an EC80 concentration of agonist was added and readings taken for an additional 1.7 minutes. All test compounds were dissolved and diluted to a concentration of 10 mM in 100% DMSO. Compounds were then serially diluted 1:3 in DMSO into 10 point concentration response curves, transferred to daughter plates, and further diluted into assay buffer to a 2× stock. Calcium fluorescence measures were recorded as fold over basal fluorescence; raw data was then normalized to the maximal response to glutamate. Antagonism of the agonist response of the mGlu2 receptor in the present invention was observed as a decrease in response to nearly maximal concentrations of glutamate in the presence of compound compared to the response to glutamate in the absence of compound.
The raw data file containing all time points was used as the data source in the analysis template. This was saved by the FDSS as a tab-delimited text file. Data were normalized using a static ratio function (F/F0) for each measurement of the total 360 values per well divided by each well's initial value. Data were then reduced to peak amplitudes (Max−Initial Min) using a time range that starts approximately 3 seconds prior to the glutamate EC80 addition and continues for approximately 90 seconds. This is sufficient time to capture the peak amplitude of the cellular calcium response. Individual amplitudes were expressed as % ECMax by multiplying each amplitude by 100 and then dividing the product by the mean of the amplitudes derived from the glutamate ECMax-treated wells. IC50 values for test compounds were generated by fitting the normalized values versus the log of the test compound concentration (in mol/L) using a 4 parameter logistic equation where none of the parameters were fixed. Each of the three values collected at each concentration of test compound were weighted evenly.
For NAMs, potency (IC50) and maximum response (% Glu Max), i.e. the amplitude of response in the presence of 30 μM test compound as a percentage of the maximal response to glutamate, are reported. […] Compounds with no measurable activity are designated as “>30,000 nM” since the top concentration of compound tested in the assay is 30 μM.
A general note: Calcium assays in cells follow changes in intracellular calcium, usually with a dye or a luminescent sensor.

Structures are written as SMILES.

As a reminder, the IC50 is the concentration that inhibits the measured activity by half.

T1 sequence (P31421 19-872): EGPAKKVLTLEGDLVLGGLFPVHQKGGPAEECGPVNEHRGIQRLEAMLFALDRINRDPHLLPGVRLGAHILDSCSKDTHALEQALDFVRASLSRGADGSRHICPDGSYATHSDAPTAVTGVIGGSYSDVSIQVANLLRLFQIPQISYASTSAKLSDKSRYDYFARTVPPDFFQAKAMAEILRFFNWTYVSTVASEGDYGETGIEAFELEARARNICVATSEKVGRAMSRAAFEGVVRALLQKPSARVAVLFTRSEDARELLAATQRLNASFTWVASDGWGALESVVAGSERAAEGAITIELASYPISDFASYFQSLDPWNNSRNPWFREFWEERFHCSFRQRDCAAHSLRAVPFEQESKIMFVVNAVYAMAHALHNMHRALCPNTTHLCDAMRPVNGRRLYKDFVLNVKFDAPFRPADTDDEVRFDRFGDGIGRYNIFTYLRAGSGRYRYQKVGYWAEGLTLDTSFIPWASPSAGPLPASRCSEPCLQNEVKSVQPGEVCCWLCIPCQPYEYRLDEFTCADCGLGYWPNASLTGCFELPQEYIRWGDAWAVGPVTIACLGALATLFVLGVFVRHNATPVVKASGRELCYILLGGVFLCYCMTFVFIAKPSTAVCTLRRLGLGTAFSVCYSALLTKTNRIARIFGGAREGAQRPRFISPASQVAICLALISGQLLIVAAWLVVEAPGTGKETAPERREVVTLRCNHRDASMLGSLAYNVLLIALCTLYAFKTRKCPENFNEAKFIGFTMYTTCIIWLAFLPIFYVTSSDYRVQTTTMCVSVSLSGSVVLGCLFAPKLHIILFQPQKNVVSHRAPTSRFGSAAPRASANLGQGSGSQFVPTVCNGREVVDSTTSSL

As for `NC(=O)c1cn(-c2ccc(F)cc2)c2ccc(NCCc3ccncc3)cc2c1=O` [Compound 26, 1-(4-fluorophenyl)-4-oxo-6-((2-(pyridin-4-yl)ethyl)amino)-1,4-dihydroquinoline-3-carboxamide], the IC50 was 444 nM and the remaining activity at 30 µM was 1.91%.
The corresponding values for `NC(=O)c1cn(-c2ccc(F)cc2)c2ccc(NCCc3cccnc3)cc2c1=O` [Compound 27, 1-(4-fluorophenyl)-4-oxo-6-((2-(pyridin-3-yl)ethyl)amino)-1,4-dihydroquinoline-3-carboxamide] are 391 nM and 1.75%.
The corresponding values for `NC(=O)c1cn(-c2ccc(F)cc2)c2ccc(NCCN3CCOCC3)cc2c1=O` [Compound 28, 1-(4-fluorophenyl)-6-((2-morpholinoethyl)amino)-4-oxo-1,4-dihydroquinoline-3-carboxamide] are 1150 nM and 0.77%.
For `Cc1ncc(COc2ccc3c(c2)c(=O)c(C(N)=O)cn3-c2ccc(F)cc2)cn1` [Compound 29, 1-(4-fluorophenyl)-6-((2-methylpyrimidin-5-yl)methoxy)-4-oxo-1,4-dihydroquinoline-3-carboxamide], in that order: 843 nM and 1.92%.
In the case of `CC(Oc1ccc2c(c1)c(=O)c(C(N)=O)cn2-c1ccc(F)cc1)c1cccnc1` (stereo not drawn) [Compound 30, 1-(4-fluorophenyl)-4-oxo-6-(1-(pyridin-3-yl)ethoxy)-1,4-dihydroquinoline-3-carboxamide], the IC50 was 391 ± 44 nM and the remaining activity at 30 µM came to 1.31 ± 0.45%.
As to `Cc1ncc(CN(C)c2ccc3c(c2)c(=O)c(C(N)=O)cn3-c2ccc(F)cc2)cn1` [Compound 31, 1-(4-fluorophenyl)-6-(methyl((2-methylpyrimidin-5-yl)methyl)amino)-4-oxo-1,4-dihydroquinoline-3-carboxamide], the IC50 came to 153 ± 33 nM and the remaining activity at 30 µM turned out to be 1.86 ± 0.26%.
The corresponding values for `NC(=O)c1cn(-c2ccc(F)cc2)c2ccc(COc3ccncc3F)cc2c1=O` [Compound 32, 1-(4-fluorophenyl)-6-(((3-fluoropyridin-4-yl)oxy)methyl)-4-oxo-1,4-dihydroquinoline-3-carboxamide] are 243 ± 63 nM and 1.83 ± 0.2%.
For `Cc1cc(OCc2ccc3c(c2)c(=O)c(C(N)=O)cn3-c2ccc(F)cc2)ccn1` [Compound 33, 1-(4-fluorophenyl)-6-(((2-methylpyridin-4-yl)oxy)methyl)-4-oxo-1,4-dihydroquinoline-3-carboxamide], in that order: 421 nM and 2.18%.
For `NC(=O)c1cn(-c2ccc(F)cc2)c2ccc(COc3ccnc(C(F)(F)F)c3)cc2c1=O` [Compound 34, 1-(4-fluorophenyl)-4-oxo-6-(((2-(trifluoromethyl)pyridin-4-yl)oxy)methyl)-1,4-dihydroquinoline-3-carboxamide], the half-maximal inhibitory concentration (IC50) was determined as 534 nM and the remaining activity at 30 µM stood at 1.97%.
For `Cc1ncc(OCc2ccc3c(c2)c(=O)c(C(N)=O)cn3-c2ccc(F)cc2)cn1` [Compound 35, 1-(4-fluorophenyl)-6-(((2-methylpyrimidin-5-yl)oxy)methyl)-4-oxo-1,4-dihydroquinoline-3-carboxamide], in that order: 287 ± 51 nM and 1.71 ± 0.2%.
The corresponding values for `NC(=O)c1cn(-c2ccc(F)cc2)c2ccc(COc3ccc(C(F)(F)F)nc3)cc2c1=O` [Compound 36, 1-(4-fluorophenyl)-4-oxo-6-(((6-(trifluoromethyl)pyridin-3-yl)oxy)methyl)-1,4-dihydroquinoline-3-carboxamide] are 1460 nM and 1.28%.
For `NC(=O)c1cn(-c2ccc(F)cc2)c2ccc(COc3ccc(Cl)nc3)cc2c1=O` [Compound 37, 6-(((6-chloropyridin-3-yl)oxy)methyl)-1-(4-fluorophenyl)-4-oxo-1,4-dihydroquinoline-3-carboxamide], in that order: 203 ± 42 nM and 1.7 ± 0.12%.
In the case of `NC(=O)c1cn(-c2ccc(F)cc2)c2ccc(N3CCCCC3c3cccnc3)cc2c1=O` (stereo not drawn) [Compound 38, 1-(4-fluorophenyl)-4-oxo-6-(2-(pyridin-3-yl)piperidin-1-yl)-1,4-dihydroquinoline-3-carboxamide], the IC50 was determined as 900 nM and the remaining activity at 30 µM amounted to 1.68%.
For `NC(=O)c1cn(-c2ccc(F)cc2)c2ccc(COc3cccnc3F)cc2c1=O` [Compound 39, 1-(4-fluorophenyl)-6-(((2-fluoropyridin-3-yl)oxy)methyl)-4-oxo-1,4-dihydroquinoline-3-carboxamide], in that order: 883 nM and 0.83%.
The corresponding values for `NC(=O)c1cn(-c2ccc(F)cc2)c2ccc(N3CCCC3c3cccnc3)cc2c1=O` (stereo not drawn) [Compound 40, 1-(4-fluorophenyl)-4-oxo-6-(2-(pyridin-3-yl)pyrrolidin-1-yl)-1,4-dihydroquinoline-3-carboxamide] are 429 nM and 1.81%.
On to `Cc1ccc(OCc2ccc3c(c2)c(=O)c(C(N)=O)cn3-c2ccc(F)cc2)cn1` [Compound 41, 1-(4-fluorophenyl)-6-(((6-methylpyridin-3-yl)oxy)methyl)-4-oxo-1,4-dihydroquinoline-3-carboxamide], for which the IC50 is 265 ± 73 nM and the remaining activity at 30 µM was found to be 1.62 ± 0.23%.
On to `CCN(Cc1cccnc1)c1ccc2c(c1)c(=O)c(C(N)=O)cn2-c1ccc(F)cc1` [Compound 42, 6-(ethyl(pyridin-3-ylmethyl)amino)-1-(4-fluorophenyl)-4-oxo-1,4-dihydroquinoline-3-carboxamide], for which the IC50 is 167 nM and the remaining activity at 30 µM worked out at 2.57%.
The corresponding values for `NC(=O)c1cn(-c2ccc(F)cc2)c2ccc(N3Cc4cccnc4C3)cc2c1=O` [Compound 43, 1-(4-fluorophenyl)-4-oxo-6-(5H-pyrrolo[3,4-b]pyridin-6(7H)-yl)-1,4-dihydroquinoline-3-carboxamide] are 5040 nM and 1.85%.
Consider `NC(=O)c1cn(-c2ccc(F)cc2)c2ccc(OCc3cccnc3)cc2c1=O` [Compound 44, 1-(4-fluorophenyl)-4-oxo-6-(pyridin-3-ylmethoxy)-1,4-dihydroquinoline-3-carboxamide], for which the IC50 was found to be 1080 nM and the remaining activity at 30 µM is 1.67%.
As for `NC(=O)c1cn(-c2ccc(F)cc2)c2ccc(COc3ccc(F)nc3)cc2c1=O` [Compound 45, 1-(4-fluorophenyl)-6-(((6-fluoropyridin-3-yl)oxy)methyl)-4-oxo-1,4-dihydroquinoline-3-carboxamide], the IC50 came out at 352 nM and the remaining activity at 30 µM is 1.47%.
Consider `NC(=O)c1cn(-c2ccc(F)cc2)c2ccc(CCc3ccnc(C(F)(F)F)c3)cc2c1=O` [Compound 46, 1-(4-fluorophenyl)-4-oxo-6-(2-(2-(trifluoromethyl)pyridin-4-yl)ethyl)-1,4-dihydroquinoline-3-carboxamide], for which the IC50 is 269 nM and the remaining activity at 30 µM was found to be 0.78%.
For `NC(=O)c1cn(-c2ccc(F)cc2)c2ccc(CCc3ccc(C(F)(F)F)nc3)cc2c1=O` [Compound 47, 1-(4-fluorophenyl)-4-oxo-6-(2-(6-(trifluoromethyl)pyridin-3-yl)ethyl)-1,4-dihydroquinoline-3-carboxamide], in that order: 1550 nM and 1.21%.
As to `NC(=O)c1cn(-c2ccc(F)cc2)c2ccc(CCc3cncc(F)c3)cc2c1=O` [Compound 48, 1-(4-fluorophenyl)-6-(2-(5-fluoropyridin-3-yl)ethyl)-4-oxo-1,4-dihydroquinoline-3-carboxamide], the IC50 is 1030 nM and the remaining activity at 30 µM came out at 1.4%.
On to `Cc1ncc(CCc2cc(F)c3c(c2)c(=O)c(C(N)=O)cn3-c2ccc(F)cc2)cn1` [Compound 49, 8-fluoro-1-(4-fluorophenyl)-6-(2-(2-methylpyrimidin-5-yl)ethyl)-4-oxo-1,4-dihydroquinoline-3-carboxamide], for which the IC50 stood at 155 nM and the remaining activity at 30 µM came out at 1.53%.

The record behind these values is patent US9382208B1, “Negative allosteric modulators of metabotropic glutamate receptor 2” (Vanderbilt University, priority 2015, dated 2016).
